Source: patent US11845748B2, “Bicyclic pyridine N-oxide derivatives useful as a factor XIa inhibitors” (Janssen Pharmaceutica NV, priority 2021, dated 2023)

Key:
human plasma kallikrein = human plasma kallikrein (Homo sapiens, UniProt P03952); assay: Kallikrein inhibition assay utilizing a quenched AMC peptide substrate (FLINT); format: biochemical; settings: kinetic reads at 5 min intervals over 30 min; 30 min preincubation; Z-Gly-Pro-Arg-AMC substrate; read-out: Kallikrein (KIN) IC50
Method: Biological Example 2: Kallikrein Inhibition Assay Utilizing a Quenched AMC Peptide Substrate
A fluorescence intensity (FLINT) based assay was used to monitor inhibition of human plasma kallikrein. The peptide substrate, Z-Gly-Pro-Arg-AMC (Purchased from Bachem; Catalog #I-1150) was chosen based on its relatively low KM for kallikrein which enables running the assay at lower substrate concentrations to control background fluorescence. The kinetic parameters for this substrate were determined by fitting titration data to the Michaelis-Menten equation yielding a KM=40 μM, kcat=0.76 s^−1, and kcat/KM=18932 M^−1s^−1.
The Kallikrein FLINT assay was used with the following Z-Gly-Pro-Arg-AMC assay buffer: 50 mM Tris, pH 7.5, 100 mM NaCl, 5 mM CaCl2, 0.1 mg/mL BSA, 0.03% CHAPS. Assay buffer was prepared by mixing all ingredients fresh. 2× Z-Gly-Pro-Arg-AMC peptide substrate was prepared by diluting 10 mM stock into 1× assay buffer for a 100 μM working concentration (50 μM final concentration). The 2× kallikrein stock solution was prepared by diluting 14.76 μM stock in 1× assay buffer for a 4 nM working stock solution (2 nM final concentration).
Test compound(s) were run in an 11-point, 3-fold serial dilution with a final top compound concentration of 1 μM. Final DMSO in assay was 2%. Plasma kallikrein was pre-incubated for 30-minute with compound and then 50 μM substrate was added to initiate the reaction. The assay was run with kinetic (KIN) reads at 5 min intervals over 30 minutes. The time course was linear using 2 nM kallikrein greater than 30 minutes. More specifically, the assay was run as follows: • 100 nL of 0.1 mM test compound was dispensed into black 384-well non-binding Greiner BioOne 784900 plate for 1 μM final concentration; • 5 μL of 1× assay buffer was dispensed to columns 24 (low control) and 5 μL 2× human kallikrein enzyme solution was dispensed to columns 1-23 (column 23 high control); • the plate was centrifuged with a “cover” plate at 500 rpm for 1 min the plate was pre-incubated for 30 minutes at room temperature with plate covered; • 5 μL of 2× Z-Gly-Pro-Arg-AMC peptide substrate was dispensed into the entire plate, columns 1-24; • the plate was centrifuged with a “cover” plate at 500 rpm for 1 min; • the plate was read monitoring fluorescence intensity on the BMG PHERAStar at room temperature, using fluorescence module 340 nm/440 nm.
Percent inhibition (IC50) curves were generated per compound tested, and data was analyzed using a 4-parameter logistic fit using GeneData Screener. The relative fluorescence unit (RFU) values were normalized to percent inhibition using the following equation: % inhibition=((HC−LC)−(compound−LC)/(HC−LC))*100
where LC—low control=mean signal of […] 100% inhibition of human kallikrein enzyme; HC—high control=mean signal of […]+Z-Gly-Pro-Arg-AMC peptide substrate with DMSO only.
(§1) An 11-point dose response curve for the test compound(s) was generated using GENDATA to determine IC50 value based on the following equation: Y=Bottom+(Top−Bottom)/(1+10^((log IC50−X)*HillSlope))
(§2) where Y is the % inhibition in the presence of X inhibitor concentration, Top=high control=mean signal of human kallikrein enzyme+Z-Gly-Pro-Arg-AMC peptide substrate with DMSO only; Bottom=low control−mean signal of no human kallikrein enzyme or 100% inhibition of human kallikrein enzyme; HillSlope—Hill coefficient; and IC50=concentration of compound with 50% inhibition in relation to top/high control.
Representative compounds of formula (I) of the present invention were tested according to the procedure described in Biological Example 1 and Biological Example 2 above, with results as listed in Table 2, below. Results listed in the (ER) column were measured using endpoint reads where a single fluorescence reading was measured for each well at a 30 min timepoint. […]

Factor XIa = Factor XIa (Homo sapiens, UniProt P03951); assay: Factor XIa inhibition assay utilizing a fluorophore-quencher pair peptide substrate (FLINT); format: biochemical; settings: kinetic reads at 5 min intervals over 30 min; 30 min preincubation; 5Fam-KLTRAETV-K5Tamra substrate; read-out: FXIa (KIN) IC50
Source text: Biological Example 1: Factor XIa Inhibition Assay Utilizing a Fluorophore-Quencher Pair Peptide Substrate
A fluorescence intensity (FLINT) based assay was used to monitor inhibition of Factor XIa. The peptide substrate, 5Fam-KLTRAETV-K5Tamra (purchased from New England Peptide) was chosen based on the […]. Conversion of zymogen […]. The custom peptide used in this assay was based on the Arg146 cleavage site of FXI. The peptide substrate was designed with a fluorophore-quencher pair, where the fluorescence is quenched until FXIa cleaves the 8-mer peptide after the Arg residue. The substrate KM was fit to a substrate inhibition model whereby kcat=0.86 s^−1, KM=12.4 μM, Ki=61.6 μM with an enzymatic efficiency, and kcat/KM=69523 M^−1s^−1.
The Factor XIa FLINT assay was used with the following 5Fam-KLTRAETV-K5Tamra assay buffer: 50 mM Tris, pH 7.5, 100 mM NaCl, 5 mM CaCl2, 0.1 mg/mL BSA, 0.03% CHAPS. Assay buffer was prepared by mixing all ingredients fresh. 5Fam-KLTRAETV-K5Tamra peptide substrate was first prepared at 10 mM in 100% DMSO, then diluted to 3 mM in 100% DMSO. Assay buffer was then added directly to the 3 mM stock of substrate to prepare the 30 μM 2× working concentration (15 μM final concentration). The 2× Factor XIa stock solution was prepared by diluting 6.562 μM stock in 1× assay buffer for a 200 pM working stock solution (100 pM final concentration).
Test compound(s) were run in an 11-point, 3-fold serial dilution with a final top compound concentration of 100 nM. Final DMSO in assay was 2%. FXIa was preincubated with compound for 30-minutes and then substrate was added to initiate the reaction. The assay was run with either end point (EP) reads at 30 min or kinetic (KIN) reads at 5 min intervals over 30 minutes. The time course was linear using 100 μM FXIa greater than 30 minutes. More specifically, the assay was run as follows: • 100 nL of 0.01 mM test compound was dispensed into black 384-well non-binding Greiner BioOne 784900 plate for 0.1 μM final concentration; • 5 μL of 1× assay buffer was dispensed to column 24 (low control) and 5 μL 2× Factor XIa solution was dispensed to columns 1-23 (column 23 high control); • the plate was centrifuged with a “cover” plate at 500 rpm for 1 min the plate was pre-incubated for 30 minutes at room temperature with plate covered; • 5 μL of 2× 5Fam-KLTRAETV-K5Tamra peptide substrate was dispensed into the entire plate, columns 1-24; • the plate was centrifuged with a “cover” plate at 500 rpm for 1 min; • the plate was read monitoring fluorescence intensity on the BMG PHERAStar at room temperature, using fluorescence module 485 nm/520 nm.
Percent inhibition (IC50) curves were generated per compound tested, and data was analyzed using a 4-parameter logistic fit using GeneData Screener. The relative fluorescence unit (RFU) values were normalized to percent inhibition using the following equation: % inhibition=((HC−LC)−(compound−LC)/(HC−LC))*100 where LC—low control=mean signal of no Factor XIa or 100% inhibition of Factor XIa; HC—high control=mean signal of Factor XIa+5Fam-KLTRAETV-K5Tamra peptide substrate with DMSO only.
as §1
as §2, with “Factor XIa+5Fam-KLTRAETV-K5Tamra” for “human kallikrein enzyme+Z-Gly-Pro-Arg-AMC”, “Factor XIa” for “human kallikrein enzyme”, “Factor XIa;” for “human kallikrein enzyme;”, “control. […]” for “control.”

Sequence of Factor XIa (P03951 388-625 limits assumed): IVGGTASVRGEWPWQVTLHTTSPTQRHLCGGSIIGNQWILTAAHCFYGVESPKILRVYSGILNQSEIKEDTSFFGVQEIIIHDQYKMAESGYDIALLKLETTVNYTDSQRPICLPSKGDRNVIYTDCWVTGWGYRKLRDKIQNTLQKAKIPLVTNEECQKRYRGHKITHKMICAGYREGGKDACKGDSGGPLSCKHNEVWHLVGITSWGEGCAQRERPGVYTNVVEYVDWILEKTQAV
Sequence of Factor XIa (P03951 19-387 partner limits assumed): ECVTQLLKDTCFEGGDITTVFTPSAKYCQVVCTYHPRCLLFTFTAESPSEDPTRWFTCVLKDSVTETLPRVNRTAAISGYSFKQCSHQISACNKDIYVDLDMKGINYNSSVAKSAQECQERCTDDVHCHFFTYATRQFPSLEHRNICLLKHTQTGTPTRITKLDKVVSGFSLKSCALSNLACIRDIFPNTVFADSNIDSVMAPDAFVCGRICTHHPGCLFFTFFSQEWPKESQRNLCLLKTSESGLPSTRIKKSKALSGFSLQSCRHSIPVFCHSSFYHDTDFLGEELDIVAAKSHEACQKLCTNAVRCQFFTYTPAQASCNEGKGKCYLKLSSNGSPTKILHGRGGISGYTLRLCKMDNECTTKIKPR
Sequence of human plasma kallikrein (P03952 391-638 limits assumed): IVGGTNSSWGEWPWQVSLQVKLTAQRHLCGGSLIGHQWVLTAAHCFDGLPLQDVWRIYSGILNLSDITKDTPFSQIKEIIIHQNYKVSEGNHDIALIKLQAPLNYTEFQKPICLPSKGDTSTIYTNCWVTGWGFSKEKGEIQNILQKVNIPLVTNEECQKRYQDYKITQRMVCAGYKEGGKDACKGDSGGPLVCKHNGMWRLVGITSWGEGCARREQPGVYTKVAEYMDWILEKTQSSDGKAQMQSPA
Sequence of human plasma kallikrein (P03952 20-390 partner limits assumed): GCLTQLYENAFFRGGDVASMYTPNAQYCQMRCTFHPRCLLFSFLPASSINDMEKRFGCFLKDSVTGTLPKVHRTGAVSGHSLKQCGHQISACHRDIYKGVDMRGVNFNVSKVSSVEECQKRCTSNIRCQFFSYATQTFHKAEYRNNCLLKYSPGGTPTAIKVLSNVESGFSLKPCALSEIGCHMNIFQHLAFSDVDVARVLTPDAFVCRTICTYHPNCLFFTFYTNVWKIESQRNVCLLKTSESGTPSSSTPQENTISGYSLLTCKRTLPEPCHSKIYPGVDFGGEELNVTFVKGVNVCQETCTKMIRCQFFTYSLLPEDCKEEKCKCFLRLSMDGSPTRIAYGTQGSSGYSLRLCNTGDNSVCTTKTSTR

| SMILES | IC50 (human plasma kallikrein) [nM] | IC50 (Factor XIa) [nM] |
| --- | --- | --- |
| Nc1ccc(-c2cnn(C3CCc4cc(-c5c(-n6cnnn6)ccc(Cl)c5F)c[n+]([O-])c43)c2)c(Cl)n1 (single isomer, unassigned) [ID No. 22, (S*)-7-(4-(6-Amino-2-chloropyridin-3-yl)-1H-pyrazol-1-yl)-3-(3-chloro-2-fluoro-6-(1H-tetrazol-1-yl)phenyl)-6,7-dihydro-5H-cyclopenta[b]pyridine 1-oxide] | 176 | 3 |
| O=C(NC1CC1)c1ccc(-c2cnn(C3CCc4cc(-c5c(-n6cnnn6)ccc(Cl)c5F)c[n+]([O-])c43)c2)cc1 (racemic) [ID No. 18, 3-(3-Chloro-2-fluoro-6-(1H-tetrazol-1-yl)phenyl)-7-(4-(4-(cyclopropylcarbamoyl)phenyl)-1H-pyrazol-1-yl)-6,7-dihydro-5H-cyclopenta[b]pyridine 1-oxide] | 1090 | 282 |
| Cn1nncc1-c1cnn([C@H]2CCc3cc(-c4c(-n5cnnn5)ccc(Cl)c4F)c[n+]([O-])c32)c1 [ID No. 25, (S)-3-(3-Chloro-2-fluoro-6-(1H-tetrazol-1-yl)phenyl)-7-(4-(1-methyl-1H-1,2,3-triazol-5-yl)-1H-pyrazol-1-yl)-6,7-dihydro-5H-cyclopenta[b]pyridine 1-oxide] | > 10000 | > 10000 |
| Nc1ccc(-c2cnn(C3CCCc4cc(-c5c(-n6cnnn6)ccc(Cl)c5F)c[n+]([O-])c43)c2)c(F)n1 (single isomer, unassigned) [ID No. 32, (S*)-8-(4-(6-Amino-2-fluoropyridin-3-yl)-1H-pyrazol-1-yl)-3-(3-chloro-2-fluoro-6-(1H-tetrazol-1-yl)phenyl)-5,6,7,8-tetrahydroquinoline 1-oxide] | > 10000 | > 10000 |
| Nc1ccc(-c2cnn(C3CCc4cc(-c5c(-n6cnnn6)ccc(Cl)c5F)c[n+]([O-])c43)c2)c(Cl)n1 (racemic) [ID No. 17, 7-(4-(6-Amino-2-chloropyridin-3-yl)-1H-pyrazol-1-yl)-3-(3-Chloro-2-fluoro-6-(1H-tetrazol-1-yl)phenyl)-6,7-dihydro-5H-cyclopenta[b]pyridine 1-oxide] | 432 | 5 |
| NC(=O)c1ccc(-c2cnn(C3CCc4cc(-c5c(-n6cc(C(F)(F)F)nn6)ccc(Cl)c5F)c[n+]([O-])c43)c2)cc1F (single isomer, unassigned) [ID No. 27, (R*)7-(4-(4-Carbamoyl-3-fluorophenyl)-1H-pyrazol-1-yl)-3-(3-chloro-2-fluoro-6-(4-(trifluoromethyl)-1H-1,2,3-triazol-1-yl)phenyl)-6,7-dihydro-5H-cyclopenta[b]pyridine 1-oxide] | 240 | > 100 |

Results, then the molecule that gave them:

| IC50 (human plasma kallikrein) [nM] | IC50 (Factor XIa) [nM] | SMILES |
| --- | --- | --- |
| 393 | 32 | Cc1cc(-c2cnn(C3CCc4cc(-c5c(-n6cnnn6)ccc(Cl)c5F)c[n+]([O-])c43)c2)ccn1 (racemic) [ID No. 23, 3-(3-Chloro-2-fluoro-6-(1H-tetrazol-1-yl)phenyl)-7-(4-(2-methylpyridin-4-yl)-1H-pyrazol-1-yl)-6,7-dihydro-5H-cyclopenta[b]pyridine 1-oxide] |
| 4040 | 42 | Cn1nncc1-c1cnn([C@@H]2CCc3cc(-c4c(-n5cnnn5)ccc(Cl)c4F)c[n+]([O-])c32)c1 [ID No. 26, (R)-3-(3-Chloro-2-fluoro-6-(1H-tetrazol-1-yl)phenyl)-7-(4-(1-methyl-1H-1,2,3-triazol-5-yl)-1H-pyrazol-1-yl)-6,7-dihydro-5H-cyclopenta[b]pyridine 1-oxide] |
| 316 | 25 | O=C(Nc1ccc(-c2cnn(C3CCc4cc(-c5c(-n6cnnn6)ccc(Cl)c5F)c[n+]([O-])c43)c2)cc1)C1CC1 (racemic) [ID No. 16, 3-(3-Chloro-2-fluoro-6-(1H-tetrazol-1-yl)phenyl)-7-(4-(4-(cyclopropanecarboxamido)phenyl)-1H-pyrazol-1-yl)-6,7-dihydro-5H-cyclopenta[b]pyridine 1-oxide] |
| 70 | 40 | [O-][n+]1cc(-c2c(-n3cnnn3)ccc(Cl)c2F)cc2c1C(n1cc(-c3ccnc(C4CC4)c3)cn1)CC2 (racemic) [ID No. 24, 3-(3-Chloro-2-fluoro-6-(1H-tetrazol-1-yl)phenyl)-7-(4-(2-cyclopropylpyridin-4-yl)-1H-pyrazol-1-yl)-6,7-dihydro-5H-cyclopenta[b]pyridine 1-oxide] |
| > 10000 | 3110 | Cn1c(-c2cnn(C3CCc4cc(-c5c(-n6cnnn6)ccc(Cl)c5F)c[n+]([O-])c43)c2)cccc1=O (racemic) [ID No. 20, 3-(3-Chloro-2-fluoro-6-(1H-tetrazol-1-yl)phenyl)-7-(4-(1-methyl-6-oxo-1,6-dihydropyridin-2-yl)-1H-pyrazol-1-yl)-6,7-dihydro-5H-cyclopenta[b]pyridine 1-oxide] |
